Measurements reported in patent publication US12508266B2 (priority 2010, dated 2025).
Converted amounts (≈) assume the structure as drawn.

Tests used:
[1] = test system: Pichinde; type: cell-based
[2] = test system: Pichinde; type: cell-based; remark: listed apart in the source
[3] = test system: Rhinovirus 2 HGP; type: cell-based
[4] = test system: Measles virus (MV), strain Chicago; test: Neutral Red Uptake Assay; type: cell-based; conditions: Vero 76 cells
[5] = test system: Yellow fever virus (Jimenez strain); set-up: species or system Syrian golden hamsters; conditions: hamster, in vivo
[6] = test system: H3N2 virus (A/Victoria/3/75); set-up: species or system Balb/C mice; conditions: mouse, in vivo, po
[7] = in vitro; conditions: African green monkey
[8] = test system: Adenovirus type 165089/Chicago; type: cell-based, Adenovirus (AV-1) type 1
[9] = test system: Influenza A H1N1 CA/04/2009 (Pandemic H1N1); type: cell-based
[10] = test system: MA-104 cells; conditions: African green monkey
[11] = test system: Punta Toro A2; type: cell-based, Punta Toro virus
[12] = test system: SARS-CoV Urbani; type: cell-based, SARS corona virus
[13] = test system: Junin Candid 1; type: cell-based, Junin virus
[14] = test system: Yellow Fever 17D; type: cell-based, Yellow fever virus
[15] = test system: Respiratory Syncytial A2; type: cell-based, Respiratory syncytial virus
[16] = test system: Venezuelan Equine Encephalitis TC83; type: cell-based, Venezuelan equine encephalitis virus
[17] = in vitro; conditions: human
[18] = test system: Influenza B Florida; type: cell-based
[19] = test system: Influenza A H3N2 Brisbane/10/2007; type: cell-based
[20] = test system: Yellow Fever 17D; type: cell-based, Yellow fever virus; remark: listed apart in the source
[21] = test system: Marburg, Junin Candid 1, Pichinde, Chikungunya 181/25 and Vaccinia NYCBH; test: organism not typed; type: cell-based; conditions: read-out: EC50 values, range over several viruses
[22] = test system: Influenza A H1N1 CA/04/2009 (Pandemic H1N1); type: cell-based; remark: listed apart in the source
[23] = test system: Junin Candid 1; type: cell-based, Junin virus; remark: listed apart in the source
[24] = test system: Influenza B Florida; test: microbe, parasite or virus in culture; type: cell-based
[25] = in vitro; conditions: human; remark: listed apart in the source
[26] = test system: Rhinovirus 2 HGP; type: cell-based; remark: listed apart in the source
[27] = test system: West Nile; type: cell-based, West Nile virus
[28] = test system: Influenza A H5N1 VN/1203/2004 Hybrid (on H1N1 backbone); type: cell-based
[29] = test system: Tacaribe TRVL 11573; type: cell-based
[30] = test system: Rift Valley Fever MP-12; type: cell-based, Rift Valley fever virus
[31] = test system: Parainfluenza 3 14702; type: cell-based, Parainfluenza virus type 3
[32] = test system: Punta Toro A2; type: cell-based, Punta Toro virus; remark: listed apart in the source
[33] = test system: SARS-CoV Urbani; type: cell-based, SARS corona virus; remark: listed apart in the source
[34] = test system: Respiratory Syncytial A2; type: cell-based, Respiratory syncytial virus; remark: listed apart in the source
[35] = in vitro; conditions: African green monkey, Visual CPE Assay
[36] = test system: Tacaribe TRVL 11573; type: cell-based; remark: listed apart in the source
[37] = test system: Rift Valley Fever MP-12; type: cell-based, Rift Valley fever virus; remark: listed apart in the source
[38] = test system: Measles virus (MV), strain Chicago; test: Visual CPE Assay; type: cell-based; conditions: Vero 76 cells
[39] = test system: Parainfluenza 3 14702; type: cell-based, Parainfluenza virus type 3; remark: listed apart in the source
[40] = test system: Dengue 2 New Guinea C; type: cell-based, Dengue virus 2
[41] = in vitro; conditions: human; remark: listed apart in the source
[42] = test system: Measles virus (MV), strain Chicago; test: Virus Yield Reduction Assay; type: cell-based; conditions: Vero-76 cells, one log 10 drop in virus produced
[43] = test system: MA-104 cells; conditions: African green monkey; remark: listed apart in the source
[44] = test system: Influenza A H5N1 VN/1203/2004 Hybrid (on H1N1 backbone); type: cell-based; remark: listed apart in the source
[45] = test system: Adenovirus type 165089/Chicago; type: cell-based, Adenovirus (AV-1) type 1; remark: listed apart in the source
[46] = test system: West Nile; type: cell-based, West Nile virus; remark: listed apart in the source
[47] = test system: Venezuelan Equine Encephalitis TC83; type: cell-based, Venezuelan equine encephalitis virus; remark: listed apart in the source
[48] = in vitro; conditions: human; remark: listed apart in the source
[49] = test system: Influenza A H3N2 Brisbane/10/2007; type: cell-based; remark: listed apart in the source
[50] = test system: Dengue 2 New Guinea C; type: cell-based, Dengue virus 2; remark: listed apart in the source

Nc1ncnc2c([C@@H]3N[C@H](CO)[C@@H](O)[C@H]3O)c[nH]c12 [Compound 1, (2S,3S,4R,5R)-2-(4-Amino-5H-pyrrolo[3,2-d]pyrimidin-7-yl)-5-(hydroxymethyl) pyrrolidine-3,4-diol]
SI Visual CPE Assay [1]: >8.2
SI Neutral Red Uptake Assay [2]: 6.7
SI Neutral Red Uptake Assay [3]: >1.8
SI Neutral Red Uptake Assay [4]: >71
weight change [5]: weight gain over placebo and ribavirin administered pre-infection
Mean weight change (grams ± SEM) Day 9 [6]: 0.01 ± 0.27 grams
CC50 [7]: 52 µg/mL (≈ 196 µM)
SI Neutral Red Uptake Assay [8]: >2.3
SI Neutral Red Uptake Assay [9]: 120
IC50 Visual CPE Assay [10]: >100 µg/mL
SI Visual CPE Assay [11]: >1.6
SI Visual CPE Assay [12]: >7.1
SI Visual CPE Assay [13]: >17
SI Neutral Red Uptake Assay [14]: 38
SI Visual CPE Assay [15]: 0
SI Visual CPE Assay [16]: 2.2
CC50 [17]: > 100 µg/mL
SI Visual CPE Assay [18]: 290
SI Neutral Red Uptake Assay [19]: 79
SI Visual CPE Assay [20]: 43
EC50 [21]: ≥ 10 µg/mL
SI Visual CPE Assay [22]: 120
SI Neutral Red Uptake Assay [23]: 14
SI Neutral Red Uptake Assay [24]: 38
EC50 ([24]; Influenza B virus): 1.8 µg/mL (≈ 6.79 µM)
CC50 [25]: > 100 µg/mL
SI Visual CPE Assay [26]: >1.8
SI Neutral Red Uptake Assay [27]: 2.8
SI Neutral Red Uptake Assay [28]: 130
SI Neutral Red Uptake Assay [29]: 2
SI Neutral Red Uptake Assay [30]: 6.6
SI Visual CPE Assay [31]: 7.1
SI Neutral Red Uptake Assay [32]: 0
SI Neutral Red Uptake Assay [33]: >6.3
SI Neutral Red Uptake Assay [34]: 0
CC50 [35]: 100 µg/mL (≈ 377 µM)
SI Visual CPE Assay [36]: 4.2
SI Visual CPE Assay [37]: 9.1
SI Visual CPE Assay [38]: >180
SI Neutral Red Uptake Assay [39]: 52
SI Neutral Red Uptake Assay [40]: 26
CC50 [41]: > 100 µg/mL
EC90 virus yield reduction [42]: 0.37 µg/mL (≈ 1.39 µM)
IC50 Neutral Red Uptake Assay [43]: >100 µg/mL
SI Visual CPE Assay [44]: >1600
SI Visual CPE Assay [45]: >2.6
SI Visual CPE Assay [46]: 0
SI Neutral Red Uptake Assay [47]: 1.2
CC50 [48]: > 100 µg/mL
SI Visual CPE Assay [49]: 140
SI Visual CPE Assay [50]: 25
